“And” between values parts separate entries of the source, which are not always exact repeats. Equal values may be shown once.
Legend:
[1] = molecular target: PIK3CD (Human) (UniProt O00329); assay: Cell-Based Assay; details: raji
[2] = molecular target: PIK3CD (Human) (UniProt O00329); assay: Enzyme Assay
[3] = molecular target: PIK3CB (Human) (UniProt P42338); assay: Enzyme Assay
[4] = molecular target: PIK3CA (human) (UniProt P42336); assay: Enzyme Assay
[5] = molecular target: PIK3CG (human) (UniProt P48736); assay: Enzyme Assay
Chain of PIK3CG (human) (P48736 whole entry, looked up): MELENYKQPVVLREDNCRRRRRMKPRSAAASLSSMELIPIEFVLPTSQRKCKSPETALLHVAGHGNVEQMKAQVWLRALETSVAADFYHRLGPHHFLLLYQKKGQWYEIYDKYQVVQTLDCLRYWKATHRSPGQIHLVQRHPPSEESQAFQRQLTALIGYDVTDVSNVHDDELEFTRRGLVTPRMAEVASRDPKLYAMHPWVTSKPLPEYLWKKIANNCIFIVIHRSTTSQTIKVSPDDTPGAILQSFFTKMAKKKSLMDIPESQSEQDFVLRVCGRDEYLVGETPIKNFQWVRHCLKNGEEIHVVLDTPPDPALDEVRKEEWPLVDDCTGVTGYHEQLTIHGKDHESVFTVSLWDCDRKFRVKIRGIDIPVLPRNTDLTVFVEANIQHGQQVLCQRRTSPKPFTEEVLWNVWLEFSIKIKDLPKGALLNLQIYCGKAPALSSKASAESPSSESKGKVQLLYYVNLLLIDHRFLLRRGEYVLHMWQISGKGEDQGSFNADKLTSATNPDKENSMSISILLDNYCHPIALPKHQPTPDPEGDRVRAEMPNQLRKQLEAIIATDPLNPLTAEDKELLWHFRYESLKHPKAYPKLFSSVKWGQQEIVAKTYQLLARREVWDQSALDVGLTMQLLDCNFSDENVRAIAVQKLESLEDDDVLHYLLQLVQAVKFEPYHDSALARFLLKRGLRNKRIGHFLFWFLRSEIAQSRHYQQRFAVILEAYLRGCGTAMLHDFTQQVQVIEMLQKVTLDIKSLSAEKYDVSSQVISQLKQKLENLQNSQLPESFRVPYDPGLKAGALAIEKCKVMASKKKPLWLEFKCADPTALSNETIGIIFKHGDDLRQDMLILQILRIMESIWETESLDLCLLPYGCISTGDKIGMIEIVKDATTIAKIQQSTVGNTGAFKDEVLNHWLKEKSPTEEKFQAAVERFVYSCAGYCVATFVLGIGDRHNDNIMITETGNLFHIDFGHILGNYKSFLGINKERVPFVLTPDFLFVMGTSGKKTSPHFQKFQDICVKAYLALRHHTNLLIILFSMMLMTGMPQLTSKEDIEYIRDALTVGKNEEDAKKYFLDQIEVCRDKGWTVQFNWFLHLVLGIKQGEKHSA

Chain of PIK3CA (human) (P42336 whole entry, looked up): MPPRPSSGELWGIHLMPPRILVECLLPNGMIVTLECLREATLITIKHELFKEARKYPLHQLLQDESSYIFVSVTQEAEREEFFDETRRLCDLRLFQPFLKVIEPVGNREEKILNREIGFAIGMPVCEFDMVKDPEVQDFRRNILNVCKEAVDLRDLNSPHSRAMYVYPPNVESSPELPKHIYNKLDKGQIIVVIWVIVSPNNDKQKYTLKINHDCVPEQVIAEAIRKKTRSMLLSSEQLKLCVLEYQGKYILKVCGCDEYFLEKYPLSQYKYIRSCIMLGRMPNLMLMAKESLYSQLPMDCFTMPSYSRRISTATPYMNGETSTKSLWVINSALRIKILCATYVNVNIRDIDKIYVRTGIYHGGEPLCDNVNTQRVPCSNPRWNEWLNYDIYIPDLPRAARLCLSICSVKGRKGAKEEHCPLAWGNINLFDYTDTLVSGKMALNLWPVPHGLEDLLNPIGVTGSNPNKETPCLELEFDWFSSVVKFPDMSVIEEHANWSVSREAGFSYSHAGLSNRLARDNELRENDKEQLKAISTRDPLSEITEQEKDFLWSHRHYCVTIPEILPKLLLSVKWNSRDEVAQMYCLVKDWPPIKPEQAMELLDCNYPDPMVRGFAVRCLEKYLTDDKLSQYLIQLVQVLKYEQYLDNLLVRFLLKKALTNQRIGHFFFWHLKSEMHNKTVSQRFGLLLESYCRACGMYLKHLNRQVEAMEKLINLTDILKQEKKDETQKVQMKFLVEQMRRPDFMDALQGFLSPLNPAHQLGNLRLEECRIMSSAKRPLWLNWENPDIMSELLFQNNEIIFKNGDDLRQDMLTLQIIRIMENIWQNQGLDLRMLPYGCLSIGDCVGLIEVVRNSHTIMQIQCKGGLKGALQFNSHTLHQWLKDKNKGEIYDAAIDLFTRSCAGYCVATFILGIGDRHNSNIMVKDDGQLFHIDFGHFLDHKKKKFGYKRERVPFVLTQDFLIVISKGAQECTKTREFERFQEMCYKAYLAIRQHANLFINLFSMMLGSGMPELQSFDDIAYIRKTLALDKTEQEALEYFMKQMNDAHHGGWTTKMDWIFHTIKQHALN
Chain of PIK3CD (Human) (O00329 whole entry, looked up): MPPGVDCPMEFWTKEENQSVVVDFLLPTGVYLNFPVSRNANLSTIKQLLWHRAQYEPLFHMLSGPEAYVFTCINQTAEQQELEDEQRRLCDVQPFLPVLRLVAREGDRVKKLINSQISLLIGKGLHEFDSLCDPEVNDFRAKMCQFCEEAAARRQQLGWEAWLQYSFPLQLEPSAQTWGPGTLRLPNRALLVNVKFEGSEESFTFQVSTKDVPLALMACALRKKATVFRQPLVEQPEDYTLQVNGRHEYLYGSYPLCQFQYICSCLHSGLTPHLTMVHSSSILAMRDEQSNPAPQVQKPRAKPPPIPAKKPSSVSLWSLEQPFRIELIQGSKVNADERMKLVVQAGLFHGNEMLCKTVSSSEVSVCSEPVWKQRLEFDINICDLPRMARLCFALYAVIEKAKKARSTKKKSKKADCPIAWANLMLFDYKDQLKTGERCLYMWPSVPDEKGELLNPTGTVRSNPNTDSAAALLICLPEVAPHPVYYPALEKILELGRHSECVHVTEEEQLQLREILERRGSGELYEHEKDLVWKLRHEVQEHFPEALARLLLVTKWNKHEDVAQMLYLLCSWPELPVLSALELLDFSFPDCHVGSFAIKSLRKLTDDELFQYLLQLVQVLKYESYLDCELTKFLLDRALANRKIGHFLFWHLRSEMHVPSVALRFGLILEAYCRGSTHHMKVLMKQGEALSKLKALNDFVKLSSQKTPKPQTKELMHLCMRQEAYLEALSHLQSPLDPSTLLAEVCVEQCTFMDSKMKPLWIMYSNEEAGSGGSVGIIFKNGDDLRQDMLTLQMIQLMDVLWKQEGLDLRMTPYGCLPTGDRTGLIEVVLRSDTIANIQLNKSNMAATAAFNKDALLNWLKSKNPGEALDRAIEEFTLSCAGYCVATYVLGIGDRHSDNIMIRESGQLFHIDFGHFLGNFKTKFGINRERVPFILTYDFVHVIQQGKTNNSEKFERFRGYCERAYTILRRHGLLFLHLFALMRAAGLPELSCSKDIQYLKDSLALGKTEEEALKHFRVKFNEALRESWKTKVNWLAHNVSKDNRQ
Chain of PIK3CB (Human) (P42338 whole entry, looked up): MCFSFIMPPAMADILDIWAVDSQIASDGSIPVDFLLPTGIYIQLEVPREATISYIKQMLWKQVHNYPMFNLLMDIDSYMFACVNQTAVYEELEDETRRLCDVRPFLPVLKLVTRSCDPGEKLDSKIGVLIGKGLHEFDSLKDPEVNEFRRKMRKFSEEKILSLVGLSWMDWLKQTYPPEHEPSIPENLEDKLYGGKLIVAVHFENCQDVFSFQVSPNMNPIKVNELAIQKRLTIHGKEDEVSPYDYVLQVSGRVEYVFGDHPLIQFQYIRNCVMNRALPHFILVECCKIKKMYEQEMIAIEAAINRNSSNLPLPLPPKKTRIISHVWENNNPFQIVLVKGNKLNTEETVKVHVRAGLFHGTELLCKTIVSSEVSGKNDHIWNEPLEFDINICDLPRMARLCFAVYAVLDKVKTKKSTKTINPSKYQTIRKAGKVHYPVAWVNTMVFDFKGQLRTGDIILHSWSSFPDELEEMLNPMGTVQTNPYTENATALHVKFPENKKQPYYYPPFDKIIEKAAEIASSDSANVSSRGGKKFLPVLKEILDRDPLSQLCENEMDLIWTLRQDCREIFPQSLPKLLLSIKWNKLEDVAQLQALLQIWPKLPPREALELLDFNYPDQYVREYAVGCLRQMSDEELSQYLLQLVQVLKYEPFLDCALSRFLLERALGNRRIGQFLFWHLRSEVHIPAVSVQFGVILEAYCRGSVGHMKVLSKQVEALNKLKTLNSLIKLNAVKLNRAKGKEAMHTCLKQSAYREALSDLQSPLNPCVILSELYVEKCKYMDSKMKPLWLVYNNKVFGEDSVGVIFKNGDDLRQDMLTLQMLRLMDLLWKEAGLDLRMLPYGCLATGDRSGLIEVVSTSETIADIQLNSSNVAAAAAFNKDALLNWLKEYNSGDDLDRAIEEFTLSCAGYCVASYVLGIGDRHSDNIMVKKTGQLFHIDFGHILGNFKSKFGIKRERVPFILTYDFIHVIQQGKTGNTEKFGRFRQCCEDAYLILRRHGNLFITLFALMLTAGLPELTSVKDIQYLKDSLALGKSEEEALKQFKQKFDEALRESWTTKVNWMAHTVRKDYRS

| Structure (SMILES) | IC50 [1] | IC50 [2] | IC50 [3] | IC50 [4] | IC50 [5] |
| --- | --- | --- | --- | --- | --- |
| C[C@H](NC(=O)c1nccnc1N)c1nc2cccc(Cl)c2c(=O)n1-c1ccccc1 | – | < 0.1 µM | – | ≥ 10 µM | 0.1 to 1 µM |
| C[C@H](NC(=O)c1nc(-c2cccc(O)c2)cnc1N)c1cc2cccc(Cl)c2c(=O)n1-c1ccccc1 | 0.1 to 1 µM | ≥ 10 µM | – | ≥ 10 µM | – |
| C[C@H](NC(=O)c1nc(-c2cccc(NS(C)(=O)=O)c2)cnc1N)c1cc2cccc(N3CCOCC3)c2c(=O)n1-c1ccccc1 | – | ≥ 10 µM | ≥ 10 µM | ≥ 10 µM | – |
| Cc1cnc(C(=O)N[C@@H](C)c2cc3cccc(C(F)(F)F)c3c(=O)n2-c2ccccc2)c(N)n1 | – | ≥ 10 µM | ≥ 10 µM | ≥ 10 µM | – |
| CC(C)Oc1ccc(-c2cnc(N)c(C(=O)N[C@@H](C)c3cc4cccc(Cl)c4c(=O)n3-c3ccccc3)n2)cc1Cl | ≥ 10 µM | ≥ 10 µM | ≥ 10 µM | ≥ 10 µM | – |
| C[C@H](NC(=O)c1nc(-c2ccccc2)cnc1N)c1cc2cccc(Cl)c2c(=O)n1-c1ccccc1 | 0.1 to 1 µM | ≥ 10 µM | ≥ 10 µM | ≥ 10 µM | – |
| C[C@H](NC(=O)c1c(N)nn2cccnc12)c1cc2cccc(N3CCOCC3)c2c(=O)n1-c1ccccc1 | – | ≥ 10 µM | ≥ 10 µM | ≥ 10 µM | – |
| C[C@H](NC(=O)c1nc(-c2ccc(NS(C)(=O)=O)cc2)cnc1N)c1cc2cccc(Cl)c2c(=O)n1-c1ccccc1 | – | ≥ 10 µM | ≥ 10 µM | ≥ 10 µM | – |
| C[C@H](NC(=O)c1nccnc1N)c1cc2cccc(-c3cccnc3)c2c(=O)n1-c1ccccc1 | < 0.1 µM | < 0.1 µM | ≥ 10 µM | ≥ 10 µM | – |
| COC(=O)c1ncsc1-c1cccc2cc([C@H](C)NC(=O)c3c(N)nn4cccnc34)n(-c3ccccc3)c(=O)c12 | – | ≥ 10 µM | ≥ 10 µM | ≥ 10 µM | – |
| CC(C)Oc1ccc(-c2cnc(N)c(C(=O)N[C@@H](C)c3cc4cccc(Cl)c4c(=O)n3-c3ccccc3)n2)cc1 | ≥ 10 µM | ≥ 10 µM | ≥ 10 µM | ≥ 10 µM | – |
| C[C@H](NC(=O)c1nc(-c2ccc(S(C)(=O)=O)cc2)cnc1N)c1cc2cccc(Cl)c2c(=O)n1-c1ccccc1 | – | ≥ 10 µM | ≥ 10 µM | ≥ 10 µM | – |

Results, then the molecule that gave them:

| IC50 [1] | IC50 [2] | IC50 [3] | IC50 [4] | IC50 [5] | Structure (SMILES) |
| --- | --- | --- | --- | --- | --- |
| < 0.1 µM | ≥ 10 µM and 0.1 to 1 µM | ≥ 10 µM and 0.1 to 1 µM | ≥ 10 µM | – | C[C@H](NC(=O)c1c(N)nn2cccnc12)c1cc2cccc(F)c2c(=O)n1-c1ccccc1 |
| – | ≥ 10 µM | – | ≥ 10 µM | ≥ 10 µM | C[C@H](NC(=O)c1c(N)nn2cccnc12)c1cc2cccc(Cl)c2c(=O)n1CC(=O)N(C)C |
| – | ≥ 10 µM | ≥ 10 µM | ≥ 10 µM | – | C[C@H](NC(=O)c1c(N)nn2cccnc12)c1cc2scc(-c3cnn(C)c3)c2c(=O)n1-c1ccccc1 |
| 0.1 to 1 µM | ≥ 10 µM | ≥ 10 µM | ≥ 10 µM | – | COc1cc(-c2cccc3cc(C(C)NC(=O)c4c(N)nn5cccnc45)c(-c4ccccc4)nc23)ccn1 (configuration not stated) |
| – | ≥ 10 µM | ≥ 10 µM | ≥ 10 µM | – | C[C@H](NC(=O)c1c(N)nn2cccnc12)c1cc2cccc(N(C)C)c2c(=O)n1-c1ccccc1 |
| – | ≥ 10 µM | ≥ 10 µM | ≥ 10 µM | – | COc1cc(-c2cccc3cc([C@H](C)NC(=O)c4c(N)nn5cccnc45)n(C4CCCCC4)c(=O)c23)ccn1 |
| < 0.1 µM | < 0.1 µM | < 0.1 µM | ≥ 10 µM | – | C[C@H](NC(=O)c1c(N)nn2cccnc12)c1cc2cccc(Cl)c2c(=O)n1CCN(C)C |
| < 0.1 µM | 0.1 to 1 µM | ≥ 10 µM | ≥ 10 µM | – | C[C@H](NC(=O)c1nccnc1N)c1cc2cccc(-c3cc[nH]n3)c2c(=O)n1-c1ccccc1 |
| < 0.1 µM | 0.1 to 1 µM | – | 0.1 to 1 µM | < 0.1 µM | COc1cc(-c2cccc3nc([C@H](C)NC(=O)c4c(N)nn5cccnc45)n(-c4ccccc4)c(=O)c23)ccn1 |

Source: the Kinase Knowledgebase extract (Sharma et al. 2016)
